For orientation: efflux ratio means a quotient of directional permeabilities that is used to spot active efflux. The Papp A→B is the apparent permeability from the apical to the basolateral side of a cell layer. The low end stands for poor permeation, the high end for ready permeation. As usually defined, the Papp B→A is the apparent permeability from the basolateral to the apical side of a cell layer.

Results on two compounds are retold here after patent US8138191B2, “Inhibitor compounds and cancer treatment methods” (Critical Outcome Technologies Inc., priority 2007, dated 2012).

For data set [1], the system named is DMS114 cells. Description: Cell cycle analysis of DMS114 cells by FACS. In kind it is cell-based, human. The conditions noted are these: DMS114, 1.5 μM, 24 h. The protocol: Approximately 2×10^5 DMS114 cells were incubated for 24 h with the indicated concentrations of COTI-219. Following incubation with COTI-219 the cells were washed and re-suspended in 0.5 ml of BP Pharmingen Propidium Iodide staining solution (Cat. No. 556463) for FACS analysis in order to determine the changes in the cell cycle.

Data set [2] concerns cleaved caspases 3 and 9. Description: Cleaved caspase 3 and 9 by western blot after COTI-219. The data set is classed as cell-based, human. The conditions noted are these: 12 h incubation, dose-dependent increase. The protocol:
Cell viability assays were performed 24 to 48 h following incubation with COTI-219 by the trypan blue exclusion method using a Beckman-Coulter Vi-CELL XR 2.03 automated cell counter. Routine laboratory methods were employed for the production of cellular lysates, protein quantitation, SDS-PAGE and western blotting. All antibodies were obtained from Cell Signaling (Erk1/2 #4695, Ras #3965, CDK2 #2546, PKCalpha #2056, EGFR #2232, and ERBB2 #2165).
In lung cancer, oncogenic Ras exerts anti-apoptotic effects, in part by up-regulating the multi-functional PKB/AKT kinase. Activated PKB/AKT phosphorylates and inhibits caspase 9 activation. In order to determine whether caspase 9 activation mediates COTI-219 apoptosis, cells were incubated for 12 h with vehicle or increasing concentrations of COTI-219 and the expression levels of cleaved caspases 3 and 9 were determined. There was a dose-dependent increase in the levels of both cleaved caspases, peaking at 0.5 μM of COTI-219. Beyond this concentration, activated caspase 9 was not detectable and there was a decline in cleaved caspase 3.
In general terms: A western blot detects proteins with antibodies after separation by electrophoresis.

The subject of data set [3] is Akt kinase activity in SHP-77 cells. The data set is described as follows: Akt kinase activity (immunoprecipitated Akt, GSK-3 phosphorylation), SHP-77. The conditions noted are these: SHP-77, 250 nM, 2-24 hrs.
Protocol: Briefly, after lysing the cells in a protein non-denaturing buffer, Akt is immunoprecipitated with immobilized antibody. The kinase reaction catalyzed by immunoprecipitated Akt consists of in vitro phosphorylation of supplemented recombinant GSK-3, a natural in vivo Akt substrate, in the presence of added ATP. The amount of phosphorylated GSK-3 is determined by western blot analysis with phospho-GSK-3αβ(Ser21/9) antibody.
Briefly, after lysing the cells in a protein non-denaturing buffer, AKT was immunoprecipitated with immobilized antibody. The kinase reaction catalyzed by immunoprecipitated AKT consists of in vitro phosphorylation of supplemented recombinant GSK-3, a natural in vivo AKT substrate, in the presence of added ATP. The amount of phosphorylated GSK-3 was determined by western blot analysis with phospho-GSK-3αβ(Ser21/9) antibody.
Data set [4] concerns DMS114 and SHP77 cells. The data set is described as follows: Western blotting of AKT pSer473 and AKT phospho-protein targets. The data set is classed as cell-based, human. Conditions: for mTOR phospho-Ser 2448: 300 nM, time course. The protocol:
Routine laboratory methods were employed for the production of cellular lysates, protein quantification, SDS-PAGE and western blotting. All antibodies were obtained from Cell Signaling and Abcam. To determine total AKT & AKT2 in DMS114 cells, 5×10^4 cells were incubated for 48 h with 10-100 ng of AKT2 siRNA or a scrambled control oligonucleotide. Cells were lysed and 50 μg of protein was separated by SDS-PAGE and blotted with antibody to total AKT or AKT2.
The phospho-AKT status at Ser473 was determined in the presence of COTI-2 utilizing western blotting. […] The inhibition of AKT phosphorylation at Ser473 correlates with the reduction in the phosphorylation of GSK-3α/β (pSer21/9), which is a downstream target of activated phospho-AKT. […] The complete time course of the AKT phospho-Ser473 status in DMS114 and SHP77 cells during incubation with COTI-2 is documented in FIG. 39.
A complex relationship exists between Raptor- and Rictor-containing mTor complexes mTORC1 and mTORC2, respectively, and AKT. mTORC2 activates AKT by Ser473 phosphorylation; in turn, activated AKT phosphorylates TSC2, which prevents its interaction with Rheb and thus the hydrolysis of GTP associated with Rheb. As a result, Rheb-GTP activates mTOR by phosphorylation on Ser2448. […] The results shown in FIGS. 40-45 agree with this hypothesis. […] Phosphorylation of the PTEN C terminal was reported to stabilize PTEN and protect against ubiquitin-mediated degradation (Nat Rev Cancer, 6: 184-192). One implication of this observation is that COTI-2 may activate PTEN and thus, by reducing the amount of PIP3, contribute to the inhibition of AKT activity.

Data set [5] in a line: in vitro. Conditions: human. As to the method: (§1) TC7 cells were seeded at 1×10^5 cells/cm^2 on porous polycarbonate membrane in 96-well Multiscreen™ plates (Millipore). Cells were fed every 2 to 3 days and the day before the permeability assay. Permeability assays are performed with the cells at days 13-25 post-seeding. The assay directions included apical to basolateral (A-B) and basolateral to apical (B-A). The working solution for COTI-2 was prepared at 10 μM in HBSS-MES (5 mM), pH 6.5, or HBSS-HEPES (5 mM), pH 7.4, from a 1 mM DMSO stock solution. The working solution was then centrifuged and the supernatant was added to the apical or basolateral side with a final DMSO concentration of 1%. The assay was incubated for 60 or 40 min with gentle shaking at 37° C. The sampling scheme consisted of donor time zero, donor time 60 or 40 min, and receiver time 60 or 40 min. Samples were analyzed via (RP)HPLC-MS/MS using selected reaction monitoring (SRM). […] The cell monolayer integrity was confirmed by fluorescein permeability assessment (in the A-B direction at pH 7.4 on both sides with 1 h incubation) after the permeability assay with COTI-2. The cell monolayer that has a fluorescein permeability of less than 0.5×10^−6 cm/s was considered intact. The apparent permeability coefficient (Papp) of COTI-2 in the […] and the percent recovery of the compounds were calculated.

Data set [6] has as its system TC7 (human intestinal epithelial cells). Description: in vitro. As to the method:
as §1

Data set [7] can be described thus: Metabolic Stability (liver microsomes, human). The data set is classed as in vitro ADME. As to the method:
Metabolic stability was determined in human (mixed gender and pool of 50) monkey (male Cynomolgus, pool of 6 or more), dog male, beagle, pool of 4 or more) and rat (male Sprague-Dawley, pool of 100 or more) liver microsomes. […] Four reference substrates (1 μM) were tested simultaneously with COTI-2. […] Peak areas corresponding to COTI-2 were recorded by HPLC-MS/MS. Metabolic stability, expressed as percent of COTI-2 remaining, was calculated by comparing the peak area of COTI-2 at 60 min to time zero.
In general terms: Microsomes from liver hold many membrane-bound enzymes, among them those of drug oxidation.

In data set [8] the test system is DMS114 cells. Description: AKT/AKT2 siRNA then COTI-2, cell viability by MTT assay, DMS114. In kind it is cell-based, human. The conditions noted are these: DMS114, 500 nM COTI-2. As to the method:
Cell cultures were maintained under regular tissue culture conditions and passaged 1-2 times a week as recommended by ATCC. For siRNA experiments the manufacturer's conditions for growth and transfection were followed. All siRNA reagents for AKT and AKT2 transfections were obtained from Cell Signaling.
Cells were treated for 48 h with 0-100 ng of AKT or AKT2 siRNA before incubation with COTI-2 at various concentrations (0-500 nM). Following incubation for 48 h, cell viability was determined by MTT assay.

The mark [9] stands for this setting: Caco-2, pH 7.4, Permeability Mean.

On to `CN1CCN(C(=S)NN=C2c3ncccc3-c3cccnc32)CC1` [COTI-219], for which, in data set [1], the cell cycle effect entry is “cell cycle arrest in G1”. The “concentration at which levels of cleaved caspases 3 and 9 peak” value in data set [2] is 0.5 µM.
On to `S=C(N/N=C1/CCCc2cccnc21)N1CCN(c2ccccn2)CC1` [COTI-2], for which the Akt kinase activity entry in data set [3] is “more gradual decrease”. Moreover, in data set [4] (250 nM), the “phosphorylation of GSK-3α/β (pSer21/9)” value is on record as “reduction”. Besides, in data set [4] (250 nM, 2 h), the “AKT Ser473 phosphorylation” value was “profound inhibition”. For the same compound, in data set [4] (DMS114 cells), the “PTEN phospho-Ser380” value was “strong but transient increase”; the “mTOR phospho-Ser 2448” value is “initial decrease in phospho-Ser 2448 at 2 hrs followed by a more sustained decrease at 24 and 48 hrs”. In data set [4] (SHP77 cells), the “mTOR phospho-Ser 2448” value is listed as “only the decrease at 2 hrs of incubation was observed”. The efflux ratio at 10 µM in data set [5] (Caco-2) is about 4.5. In addition, the Papp A→B at 10 µM in data set [5] (Caco-2, A-B permeability (Papp)) was under 0.3 ×10⁻⁶ cm/s. Further, the recovery at 10 µM in data set [5] (Caco-2, mean recovery) is 22%. In data set [5] (setting [9]), the Papp A→B at 10 µM is under 0.3 ×10⁻⁶ cm/s and the Papp B→A at 10 µM is 1.4 ×10⁻⁶ cm/s. Further, in data set [6] (Caco-2), the Pgp substrate assessment entry is given as “not a substrate of Pgp”. In addition, the Flags entry in data set [6] (Caco-2, pH 7.4) is given as “BLQ”. In addition, in data set [7] (1.0 μM), the “percent remaining at 60 min” value is recorded as 31%. In data set [7] (1.0E−06 M, 60 min, mean), the “Mean Parent Remaining” value is recorded as 31%. For the same compound, in data set [8], the “cytotoxicity after AKT2 knock-down by siRNA” value is recorded as “unable to exert additional significant cytotoxicity”.
